Data as given in patent US20230183705A1, “PRODUCTS FOR SUPPRESSING OR REDUCING THE EXPRESSION OR ACTIVITY OF A SNORNA AND USES THEREOF IN THE TREATMENT OF CANCER” (NINOVAX, priority 2020, published 2023).

Legend:
Format in all cases: cell-based, human
[1] = tested on: A549 cells (lung cancer); experiment: Cell proliferation (cell counting) after siRNA knock-down of snoRNA-jouvence; settings: siRNA 10 nM, three transfections at day 0, 2, 4, cells counted at day 7
Method: (§1) The siRNA treatment consists of three reverse transfections applied at day 0, day 2, day 4, followed by the determination of the number of cells at day 7 for A-B-C-D. For E, a single treatment has been done at day 0, and the number of cells was counted two days later. siRNA was used at a concentration of 10 nM. Five different human cancer cell lines were used. A) HCT116 cells (colon cancer), B) MCF7 cells (breast cancer), C) U87 cells (glioblastoma), D) A549 cells (lung cancer), and E) K562 cells (leukemia). In siRNA-treated cells, inventors observed a strong reduction of the number of cells, by about 50% or more, except in E in which the reduction was about 10% probably due to the fact that only a single treatment has been performed. […] In si-RNA treated cells, inventors observed a 40% reduction of snoRNA-jouvence expression.
(§2) All human cancer cell lines were provided from ATCC. HCT116 were cultured in McCoy’s 5A medium (Gibco, Invitrogen, USA), supplemented with 10% Fetal Bovine Serum (FBS) (Biowest, France). MCF7, A549, and K562 cells were cultured in RPMI 1640 + Glutamax medium (Gibco, Invitrogen, USA), supplemented with 10% Fetal Bovine Serum (FBS) (Biowest, France). U87 cells were cultured in Dulbecco’s modified Eagle’s medium (DMEM) (Gibco), supplemented with 10% FBS. Cells were incubated at 37° C. in a humidified atmosphere containing 5% CO2. The medium was changed every two days, and cells were transferred using 0.05% trypsin/EDTA (Gibco Invitrogen).
(§3) The effect of the knock-down of the snoRNA-jouvence in HCT116 cells was assessed by the transfection of short interfering RNA (siRNA). First, the cells were seeded in 12-well plates (in triplicates), with the following number of cells per well: HCT116 and MCF7: 3.0×10^4, K562: 2.5 x10^4, A549: 2.0x10^4, and U87: 6.0x10^4. […] Cell suspensions were directly transfected with the corresponding siRNA (reverse transfection) at a final concentration of 10 nM per well, using the Lipofectamine RNAiMAX transfection reagent (ThermoFisher Scientific, USA). Forty-eight hours after the first siRNA reverse transfection, a forward transfection was performed on the adherent cells (at the same concentration as the first reverse transfection). Again, forty-eight hours after the siRNA forward transfection, a second forward transfection was performed on the adherent cells (at the same concentration). Then, after 72 h (meaning at J7 from the starting point), the medium was changed and cells were counted and compared to the different controls. For the RNA extraction and RNA-seq analysis performed in HCT116 cells, cell pellets were made under the same conditions (at J7). Experiments were performed in triplicates and the specific knock-down of the snoRNA-jouvence was validated by standard RT-qPCR (TaqMan).
(§4) Study was performed in five different human cancer cell lines, HCT116 cells (colon cancer), MCF7 cells (breast cancer), U87 cells (glioblastoma), A549 cells (lung cancer), and K562 cells (leukemia). The proliferation rate of siRNA-treated cells (snoRNA jouvence knock-down) compared to non-treated Control cells was analysed by cell counting at J7. Briefly, the supernatant was harvested and cells washed with PBS 1X. Then, cells were trypsinized with 300 µl of 0.05% trypsin/EDTA (Gibco) per well. Trypsine was inactivated with 700 µL of the corresponding medium per well, and then counted with the VicellXR (Cell viability Analyzer, Beckman Coulter).

[2] = tested on: K562 cells (leukemia); experiment: as above; settings: siRNA 10 nM, single treatment at day 0, cells counted two days later
Method: as §1, §2, §3, §4

[3] = tested on: MCF7 cells (breast cancer); experiment: as above; settings: siRNA 10 nM, three transfections at day 0, 2, 4, cells counted at day 7
Method: as §1, §2, §3, §4

[4] = tested on: U87 cells (glioblastoma); experiment: as above; settings: siRNA 10 nM, three transfections at day 0, 2, 4, cells counted at day 7
Method: as §1, §2, §3, §4

[5] = tested on: HCT116 cells (colon cancer); experiment: as above; settings: siRNA 10 nM, three transfections at day 0, 2, 4, cells counted at day 7
Method: as §1, §2, §3, §4

[6] = tested on: Ribosomes pathways; experiment: Transcriptomic analysis (RNA-seq) with KEGG analysis in HCT116 cells; settings: HCT116, siRNA treated versus non-treated cells
Method: Briefly, 99 genes over 138 genes of this pathway are deregulated.
as §3, with “(TaqMan). […]” for “(TaqMan).”
In brief, technically, RNA concentration was measured using Qubit® RNA Assay Kit in Qubit® 2.0 Flurometer (Life Technologies, CA, USA). RNA integrity was assessed using the RNA Nano 6000 Assay Kit of the Bioanalyzer 2100 system (Agilent Technologies, CA, USA). […] At last, PCR products were purified (AMPure XP system) and library quality was assessed on the Agilent Bioanalyzer 2100 system. […] After cluster generation, the library preparations were sequenced on an Illumina Hiseq platform and 125 bp/150 bp paired-end reads were generated. […]

[7] = tested on: snoRNA-jouvence; experiment: Expression of the snoRNA-jouvence by RT-qPCR (Taqman) in siRNA-treated HCT116 cells; settings: siRNA-treated HCT116 cells compared to non-treated control HCT116 cells, siRNA 10 nM
Method: as §1
The effect of the knock-down of the snoRNA-jouvence in HCT116 cells was assessed by the transfection of short interfering RNA (siRNA). First, the cells were seeded in 12-well plates (in triplicates), with the following number of cells per well: HCT116 and MCF7: 3.0×10^4, K562: 2.5 x10^4, A549: 2.0x10^4, and U87: 6.0x10^4. […] Then, after 72 h (meaning at J7 from the starting point), the medium was changed and cells were counted and compared to the different controls. […]

## siRNA: silencer selected siRNA (Lock-Nucleotide-Acid siRNA) comprising SEQ ID NO: 3 as sense and SEQ ID NO: 4 as antisense sequence, against snoRNA-jouvence (sense GGCUAUUGUGGACAGAGGA; antisense UCCUCUGUCCACAAUAGCC; Silencer Select LNA-modified siRNA, pattern not given here)
[1]
  reduction of the number of cells: ≥ 50%
[2]
  reduction of the number of cells: about 10%
[3]
  reduction of the number of cells: ≥ 50%
[4]
  reduction of the number of cells: ≥ 50%
[5]
  reduction of the number of cells: ≥ 50%
[6]
  deregulated genes of the Ribosomes pathways (over 138 genes): 99 genes
  downregulated genes of the Ribosomes pathways: 92 genes
  upregulated genes of the Ribosomes pathways: 7 genes
[7]
  reduction of snoRNA-jouvence expression: 40%
